Test results published in US20160000762A1, “IMPROVING COGNITIVE FUNCTION” (THE REGENTS OF THE UNIVERSITY OF CALIFORNIA, priority 2013, published 2016).

Assays:
Ras = experiment: GST-Raf1-RBD pulldown of active Ras, brain lysates of wild-type mice; assay type: in vivo; conditions: 30 mg/kg daily for 2 weeks
Method: GST-pull-down assay. To measure levels of active Ras, brain lysate homogenized with Ral buffer (25 mM Tris-HCl, pH 7.4, 250 mM NaCl, 0.5% NP40, 1.25 mM MgCl2, and 5% glycerol) from APP transgenic, APP knockout, or wild-type mice was incubated with GST-Raf-RBD purified protein coupled with GLUTATHIONE SEPHAROSE™ (Amersham) overnight at 4° C. After 24 hours, pellets were washed with Ral buffer and western blotting was conducted with anti-Ras.
We next investigated the molecular mechanism by which BTA-EG4 may alter dendritic spine formation. Ras, a small GTPase, is involved in dendritic spine formation and synaptic delivery of AMPA receptors (Zhu et al., 2002; Lee et al., 2011). Moreover, abnormal Ras signaling is associated with neurodegenerative disease, causing cognitive impairments and learning deficits (Stornetta and Zhu, 2011). Thus, we initially investigated the effect of BTA-EG4 on Ras signaling by treating primary hippocampal neurons with BTA-EG4 (5 μM) or control for 24 hrs. […] Further, levels of active Ras were elevated following BTA-EG4 treatment (5 μM) in primary cortical neurons (FIG. 7C) and following BTA-EG4 treatment (30 mg/kg) in wild-type mice (FIG. 7D). We also examined whether BTA-EG4 can alter the activity of downstream Ras signaling proteins, including p-ERK and p-CREB.

APP = system: T1, APP; experiment: Live cell surface immunostaining, primary hippocampal neurons; assay type: cell-based, Sprague-Dawley rats; conditions: 5 μM, 24 h
T1 construct: expressed in transfected cells; host or cells: primary hippocampal neurons from E19 Sprague-Dawley rats
Method: Primary neuron culture and immunostaining. Primary hippocampal neurons from E19 Sprague-Dawley rats were cultured at 150 cells/mm^2 as previously described (Pak et al., 2001). Neurons were transfected using Lipofectamine™ 2000 (Invitrogen, Carlsbad, Calif., USA) or calcium phosphate precipitation with GFP+PLL, GFP+APP shRNA, or GFP+APP and treated with BTA-EG4. The following antibodies were used: mouse anti-GFP (Novus Biologicals, 9F9.F9), rabbit anti-GFP (Invitrogen, A11122), rabbit anti-GluR1 (Calbiochem, PC246), mouse anti-GluR2 (BD Pharmagen, 556341), mouse anti-postsynaptic density (PSD)-95 (NeuroMabs, Davis, Calif., USA), mouse anti-Synaptophysin (Sigma Aldrich, s5768), rabbit APP N-terminal (Sigma-Aldrich, A8967), anti-Ras (BD Biosciences, 610001), anti-RasGRF1 (Santa Cruz, C-20; BD Biosciences, 610149), anti-ERK1/2 (Cell Signaling, 4695), anti-p-ERK1/2 (Invitrogen, 36880), anti-CREB (Cell Signaling, D76D11), anti-p-CREB (Millipore, 06-519), and mouse anti-c-Myc (Novus Biologicals, 9E10). Cultured hippocampal neuron images were acquired by LSM 510 laser scanning confocal microscope (Zeiss). Confocal zseries image stacks encompassing entire dendrite segments were analyzed using MetaMorph software (Universal Imaging Corporation, Downington, Pa., USA).
Live cell surface immunostaining. […] Surface-labeled APP was detected with ALEXA FLUORO-555 secondary antibodies. […]

human APP = target: T2, human APP (Homo sapiens, UniProt P05067); experiment: Cell surface biotinylation, COS7 cells expressing APP; assay type: cell-based; conditions: 5 μM, 24 h
T2 construct: expressed in transfected cells; host or cells: COS7 cells
Method: Cell lines. COS 7 cells (Lombardi Co-Resources Cancer Center, Georgetown University) were maintained in Opti-MEMO (Invitrogen) with 10% fetal bovine serum (FBS, Life Technologies, Inc.) in a 5% CO2 incubator. The cells were transiently transfected with 0.5-1 μg of plasmid in FuGENE® 6 (Roche) according to the manufacturer's protocol and cultured 24 hr in DMEM containing 10% FBS. For co-transfections, cells were similarly transfected with 0.5-1 μg of each plasmid in FUGENE® 6 (Roche) and cultured 24 hr in DMEM with 10% FBS.
Cell surface biotinylation. COS7 cells were transiently transfected with APP for 24 hr in OPTI-MEM® containing 10% fetal bovine serum, and then treated with BTA-EG4 or control for 24 hr. After 24 hr, surface proteins were biotin labeled, immobilized with NeutrAvidin™ Gel and incubated 1 h with SDS-PAGE sample buffer, including 50 mM DTT, as described previously (Minami et al., 2010). Eluates were analyzed for APP by immunoblotting.
It is well known that the majority of a-secretase activity occurs on the cell surface, while β- and γ-secretase activity occurs primarily in the early and late endosomes (Huse et al., 2000; Reiss et al., 2006). Thus, if APP is present at the cell's surface, it is preferentially cleaved by α-secretase, resulting in decreased Aβ production. Therefore, we examined whether BTA-EG4 regulates cell surface expression of APP. […]

dendritic spines = experiment: Golgi staining, dendritic spines of wild-type mice; assay type: in vivo; conditions: 30 mg/kg, 2 weeks
Method: Golgi staining and morphological analysis of dendritic spines. To analyze dendritic spine density and morphology in brain, FD RAPID GOLGISTAIN KIT™ (FD NeuroTechnologies, Ellicott City, Md., USA) was used. Dissected mouse brains were immersed in Solution A and B for 2 weeks in dark conditions at room temperature and transferred into Solution C for 24 h at 4° C. Brains were sliced using a VT1000S Vibratome (Leica, Bannockburn, Ill., USA) at 150 μm thickness. Dendritic images were acquired by Axioplan 2 (Zeiss, Oberkochen, Germany) under brightfield microscopy. Spine width, length, and linear density of cortical layers II/III and CA1 of hippocampus were measured using Scion image software (Scion Corporation, Frederick, Md., USA). Images were coded, and dendritic spines counted in a blinded manner. Spines from 0.2 to 2 μm in length were included for analysis. All morphological analysis was done blind to experimental conditions.

T1 sequence (P05067 18-770): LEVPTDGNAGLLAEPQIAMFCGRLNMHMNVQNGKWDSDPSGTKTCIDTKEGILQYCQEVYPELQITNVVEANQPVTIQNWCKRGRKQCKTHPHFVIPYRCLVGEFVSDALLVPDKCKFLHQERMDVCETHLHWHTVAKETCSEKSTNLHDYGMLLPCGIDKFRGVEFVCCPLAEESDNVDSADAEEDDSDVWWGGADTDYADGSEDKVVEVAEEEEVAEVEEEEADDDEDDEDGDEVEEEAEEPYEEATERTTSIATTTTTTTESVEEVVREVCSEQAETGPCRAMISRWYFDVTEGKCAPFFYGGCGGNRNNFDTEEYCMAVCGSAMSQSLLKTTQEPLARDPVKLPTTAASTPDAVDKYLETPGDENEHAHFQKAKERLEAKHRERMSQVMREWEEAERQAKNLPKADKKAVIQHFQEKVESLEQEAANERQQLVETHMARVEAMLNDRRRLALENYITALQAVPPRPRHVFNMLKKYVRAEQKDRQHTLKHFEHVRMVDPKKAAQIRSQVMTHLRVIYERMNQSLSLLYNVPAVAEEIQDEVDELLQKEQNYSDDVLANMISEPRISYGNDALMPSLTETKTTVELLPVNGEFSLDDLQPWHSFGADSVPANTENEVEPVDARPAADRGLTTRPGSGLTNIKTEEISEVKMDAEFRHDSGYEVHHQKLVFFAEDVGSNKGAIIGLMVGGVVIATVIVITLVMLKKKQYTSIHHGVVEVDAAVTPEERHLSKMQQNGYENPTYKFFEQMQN
T2 sequence (P05067 18-770): as above

BTA-EG4
levels of active Ras (Ras): elevated | cell surface levels of APP (APP): increased | total levels of APP (APP): without affecting | cell surface APP (human APP): increased | dendritic spine density (dendritic spines; CA1 region of the hippocampus): significantly increased | dendritic spine density (dendritic spines; cortical layers II/III): significantly increased | spine morphology (spine head width and spine length) (dendritic spines; hippocampus CA1 and cortical layers II/III): did not alter
